Patent US20210196779A1, “Compositions and Methods for Treating Steroid Hormone-Related Diseases or Disorders” (YALE UNIVERSITY, priority 2018, published 2021)

Columns and labels:
Format in all cases: cell-based
[1] = test system: 22Rv1 cells; assay: Cell growth assay, 22Rv1 prostate cancer cells; conditions: in the presence or absence of DHT and DEX
Method: (§1) 22RV1 or LNCaP prostate cancer cells were grown in corning T75 cell culture flasks in RPMI1640 medium supplemented with 5% FBS, 50 μg/ml Kanamycin in a 37° C., 5% CO2 incubator.
(§2) 20,000 cells in 1 ml of medium (phenol red free RPMI1640, 5% charcoal-dialysis FBS, 50 μg/ml Kanamyacin) were seeded per well of a 24-well plate and incubated in a 37° C. incubator with 5% CO2 overnight. Different concentrations of herbal extract were added to each well in order to have final concentrations from 50 μg/ml to 500 μg/ml. […] For glucocorticoid receptor overexpressed LNCaP cells, dexamethasone (50 nM) was used to stimulate glucocorticoid receptor activity. For all breast cancer cells, E2 (10 nM) was used to stimulate ER activity. Control medium without any steroid hormone was used as a control setting. After 4 days of incubation, cells were fixed and stained for 2 h with 0.5% methylene blue in 50% ethanol, followed by washing with tap water to remove unbound dye. Plates were air dried and then cells were dissolved in 1% sarkosyl (sodium lauroyl sarcosinate) by shaking at room temperature for 3 h. […] All experiments were performed in triplicate wells and were repeated at least three times.

[2] = test system: LNCaP cells; assay: Cell growth assay, LNCaP prostate cancer cells
Method: as §1, §2

[3] = test system: LNCaP-GR (GR overexpressing) cells; assay: Cell growth assay, GR overexpressing LNCaP cells; conditions: DEX stimulated
Method: as §2

[4] = target: T1, GR (stimulated with DEX) (Homo sapiens, UniProt P04150); assay: GR driven luciferase activity (DEX) in LNCaP-GR cells; conditions: LNCaP-GR luciferase reporter cells
T1 construct: expressed in transfected cells; host or cells: LNCaP (LNCaP-GR)
T1 sequence (P04150 whole entry): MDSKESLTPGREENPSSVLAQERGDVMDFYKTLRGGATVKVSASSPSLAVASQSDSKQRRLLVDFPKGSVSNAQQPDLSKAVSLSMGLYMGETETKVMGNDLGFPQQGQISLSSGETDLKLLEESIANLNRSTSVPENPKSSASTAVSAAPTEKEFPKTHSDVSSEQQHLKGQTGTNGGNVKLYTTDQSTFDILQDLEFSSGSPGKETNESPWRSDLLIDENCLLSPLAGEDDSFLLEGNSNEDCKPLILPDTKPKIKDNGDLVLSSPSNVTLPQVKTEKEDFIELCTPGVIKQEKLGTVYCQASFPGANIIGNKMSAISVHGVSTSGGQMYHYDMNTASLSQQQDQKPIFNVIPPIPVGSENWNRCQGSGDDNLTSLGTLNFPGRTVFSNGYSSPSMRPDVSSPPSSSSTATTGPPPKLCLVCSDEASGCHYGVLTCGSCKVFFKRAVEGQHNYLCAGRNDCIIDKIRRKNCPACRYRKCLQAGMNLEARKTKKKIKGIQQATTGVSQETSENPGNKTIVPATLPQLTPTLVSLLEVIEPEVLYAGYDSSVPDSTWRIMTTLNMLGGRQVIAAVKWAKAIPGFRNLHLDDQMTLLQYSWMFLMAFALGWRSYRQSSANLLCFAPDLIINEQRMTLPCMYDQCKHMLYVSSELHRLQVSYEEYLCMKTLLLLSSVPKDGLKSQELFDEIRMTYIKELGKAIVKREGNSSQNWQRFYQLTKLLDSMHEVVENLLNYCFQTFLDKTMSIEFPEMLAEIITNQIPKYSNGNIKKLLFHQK
Method: Both LNCaP and GR overexpressing LNCaP cells were carrying luciferase reporters with AR response elements.
(§3) Reporter cells were treated with herbal extracts at 30, 100, 300, and 1000 μg/ml for 24 h in a 37° C.-CO2 incubator. DHT (25 nM) was used to stimulate androgen receptor activity. Dexamethasone (50 nM) was used to stimulate glucocorticoid receptor activity Cells were lysed using luciferase lysis buffer after which luciferase buffer with luciferin was added to generate luminescence. Luminescence was recorded using a luminescence microplate reader.

[5] = test system: androgen receptor (AR); assay: PSA-luciferase reporter assay, DHT induced, 22RV1 cells; conditions: equivalent doses, 22RV1 cells in the presence of DHT
Method: 22RV1 or LNCaP prostate cancer cells were used in the screening study. 22RV1 or LNCaP cell lines were stably transfected with PSA promoter-PGL4.2 luciferase reporter. DHT (25 nM) was used to stimulate androgen receptor activity for 24 h.
as §3

Compound | growth inhibitory effect on 22RV1 cells (in words) [1] | susceptibility of LNCaP cell growth to treatment (in words) ([2]; in the absence of DHT) | sensitivity of LNCaP cell growth to treatment (in words) ([2]; in the presence of DHT) | resistance of LNCaP-GR cell growth (in words) [3] | inhibition of DEX induced transcriptional response [4] | inhibitory effect on AR mediated transcriptional response [5]
CNC(=O)c1ccc(N2C(=S)N(c3ccc(C#N)c(C(F)(F)F)c3)C(=O)C2(C)C)cc1F [Enzalutamide, reference compound] | resistant | not be susceptible | more sensitive | resistant | but not DEX induced transcriptional response | 
Cc1c(O)cc2c(c1O)C(=O)c1ccc(O)cc1C2=O [TMT, 1,3,6-Trihydroxy-2-methyl-9,10-anthracenedione] |  |  |  |  |  | very weak activity
